Legend:
Format in all cases: cell-based, mouse
[1] = test system: α7 integrin (LacZ reporter in α7+/LacZ myotubes); test: Myotube α7 integrin FDG assay (Burkin assay in myotubes, 96-well); conditions: myotubes
[2] = test system: β-galactosidase in CMV-LacZ C2C12 myotubes; test: CMV-LacZ secondary screen in C2C12 myotubes (β-Gal stabilizing assay); conditions: C2C12 CMV-LacZ myotubes, fold relative to DMSO
In short: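 β-Gal level was the read-out, measured in a clonal C2C12 line expressing LacZ from a CMV promoter. Dose-response curves used six concentrations, 0.5 μM up to 40 μM, with duplicate points.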

[3] = test system: β-galactosidase in CMV-LacZ C2C12 myoblasts; test: CMV-LacZ secondary screen in C2C12 myoblasts (β-Gal stabilizing assay); conditions: CMV-LacZ C2C12 myoblasts
In short: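 Dose-response runs at 0.5–40 μM (0.5, 1, 5, 10, 20, 40 μM; N=2 per point) used a clonal C2C12 line carrying CMV-LacZ. Cells were assayed as myoblasts or as differentiated myotubes, and β-galactosidase levels were read with the FDG fluorogenic substrate.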

[4] = test system: α7 integrin (LacZ reporter in α7βgal+/− myoblasts); test: Myoblast α7+/LacZ integrin FDG assay (Burkin assay in myoblasts, 96-well); conditions: α7+/LacZ myoblasts, 96-well

Compound	Burkin Assay in Myotubes, α7 integrin LacZ reporter signal relative to DMSO ([1]; 0.5 uM)	Burkin Assay in Myotubes, α7 integrin LacZ reporter signal relative to DMSO ([1]; 1 uM)	Burkin Assay in Myotubes, α7 integrin LacZ reporter signal relative to DMSO ([1]; 5 uM)	Burkin Assay in Myotubes, α7 integrin LacZ reporter signal relative to DMSO ([1]; 10 uM)	Burkin Assay in Myotubes, α7 integrin LacZ reporter signal relative to DMSO ([1]; 20 uM)	Burkin Assay in Myotubes, α7 integrin LacZ reporter signal relative to DMSO ([1]; 40 uM)	CMV-LACZ in Myotubes, signal relative to DMSO ([2]; 0.5 uM)	CMV-LACZ in Myotubes, signal relative to DMSO ([2]; 1 uM)	CMV-LACZ in Myotubes, signal relative to DMSO ([2]; 5 uM)	CMV-LACZ in Myotubes, signal relative to DMSO ([2]; 10 uM)	CMV-LACZ in Myotubes, signal relative to DMSO ([2]; 20 uM)	CMV-LACZ in Myotubes, signal relative to DMSO ([2]; 40 uM)	CMV-LACZ in Myoblasts (β-galactosidase activity relative to DMSO) ([3]; 0.5 uM)	CMV-LACZ in Myoblasts (β-galactosidase activity relative to DMSO) ([3]; 1 uM)	CMV-LACZ in Myoblasts (β-galactosidase activity relative to DMSO) ([3]; 5 uM)	CMV-LACZ in Myoblasts (β-galactosidase activity relative to DMSO) ([3]; 10 uM)	CMV-LACZ in Myoblasts (β-galactosidase activity relative to DMSO) ([3]; 20 uM)	CMV-LACZ in Myoblasts (β-galactosidase activity relative to DMSO) ([3]; 40 uM)	Burkin Assay in Myoblasts, signal relative to DMSO ([4]; 0.5 uM)	Burkin Assay in Myoblasts, signal relative to DMSO ([4]; 1 uM)	other results
CCOc1ccc(Br)cc1S(=O)(=O)Nc1ccc(C(=O)Nc2ccccc2OC)cc1 [MLS000418650-01]	1.086	1.004	1.032	0.9654	0.7581	0.7593	1.0086	1.2819	1.0198	1.1746	1.1180	1.2260	0.9237	0.9533	1.0080	0.8344	1.1523	1.1323	0.9156	1.069	Burkin Assay in Myoblasts, signal relative to DMSO ([4]; 5 uM): 1.13; Burkin Assay in Myoblasts, signal relative to DMSO ([4]; 10 uM): 0.9633; Burkin Assay in Myoblasts, signal relative to DMSO ([4]; 20 uM): 0.9104; Burkin Assay in Myoblasts, signal relative to DMSO ([4]; 40 uM): 0.9445
CCCN(C(=O)c1ccc(S(=O)(=O)N2CCCC2)cc1)C1CCS(=O)(=O)C1 (stereo not drawn) [MLS002161853-01]	0.8761	0.8092	0.9889	1.16	0.919	0.9353	1.0524	0.8352	1.1122	0.9103	1.2341	1.0647	1.0131	0.8734	0.8819	0.9436	1.0922	0.9348	0.8569	0.8278	Burkin Assay in Myoblasts, signal relative to DMSO ([4]; 5 uM): 0.9386; Burkin Assay in Myoblasts, signal relative to DMSO ([4]; 10 uM): 1.1978; Burkin Assay in Myoblasts, signal relative to DMSO ([4]; 20 uM): 1.073; Burkin Assay in Myoblasts, signal relative to DMSO ([4]; 40 uM): 0.9354
CCOC(=O)c1sc(=N)n(-c2ccc(OC)cc2)c1C [MLS000090135-01]	1.042	0.9598	0.8747	0.9078	0.8015	0.8215	1.0155	1.1036	0.7503	1.0114	1.1100	1.1840	1.0896	0.9421	0.9731	0.9296	0.6017	0.3653	1.227	1.166	Burkin Assay in Myoblasts, signal relative to DMSO ([4]; 5 uM): 0.988; Burkin Assay in Myoblasts, signal relative to DMSO ([4]; 10 uM): 1.018; Burkin Assay in Myoblasts, signal relative to DMSO ([4]; 20 uM): 0.6029; Burkin Assay in Myoblasts, signal relative to DMSO ([4]; 40 uM): 0.3956
CCOC(=O)C1=C(CC)Nc2ccccc2N=C1NC(=O)c1ccc(OC)c(S(=O)(=O)N2CCCCC2C)c1 (stereo not drawn) [MLS000776409-01]	0.8925	1.029	0.882	0.9284	0.8949	0.8056	1.0552	0.9752	1.0186	1.1035	1.1040	1.1540	1.1220	0.9103	0.8929	0.9052	1.3344	0.2105	1.1194	1.007	Burkin Assay in Myoblasts, signal relative to DMSO ([4]; 5 uM): 0.9389; Burkin Assay in Myoblasts, signal relative to DMSO ([4]; 10 uM): 0.9838; Burkin Assay in Myoblasts, signal relative to DMSO ([4]; 20 uM): 0.5087; Burkin Assay in Myoblasts, signal relative to DMSO ([4]; 40 uM): 0.3444
CN(/C(=N/S(=O)(=O)c1cccs1)c1ccccc1)c1ccccc1 [MLS000582947-01]	0.9003	1.155	1.02	0.9759	1.102	0.791	0.8848	0.9610	0.9280	0.9127	1.0729	1.0247	0.9691	0.8991	1.1273	1.0067	0.7811	0.8819	1.236	0.9632	Burkin Assay in Myoblasts, signal relative to DMSO ([4]; 5 uM): 0.943; Burkin Assay in Myoblasts, signal relative to DMSO ([4]; 10 uM): 0.9807; Burkin Assay in Myoblasts, signal relative to DMSO ([4]; 20 uM): 0.9417; Burkin Assay in Myoblasts, signal relative to DMSO ([4]; 40 uM): 0.7737

— patent publication US9980943B2, “Methods of treating muscular dystrophy” (BOARD OF REGENTS OF THE NEVADA SYSTEM OF HIGHER EDUCATION, …, priority 2013, dated 2018)
